Literature values as cited in US10772837B2, “Modified release multi-layer tablet cannabinoid formulations” (CannTab Therapeutics, Limited, priority 2017, dated 2020).
Read-outs that look alike come from different tables or passages of the source.

Experiments:
[1] = pure CBD, twice-daily dosages, paediatric patients; ranging from total seizure freedom to these reductions
[2] = for solubility: in water

| SMILES | seizure reduction [1] | BCS class ([2]; NICHD/FDA Oral Formulations Platform Report 1) | solubility [2] | solubility ([2]; listed as dronabinol) |
| --- | --- | --- | --- | --- |
| C=C(C)[C@@H]1CCC(C)=C[C@H]1c1c(O)cc(CCCCC)cc1O [CBD, cannabidiol] | 25-80% | – | – | – |
| CCCCCc1cc(O)c2c(c1)OC(C)(C)[C@@H]1CCC(C)=C[C@@H]21 [Dronabinol, (−)-trans-Δ9-tetrahydrocannabinol] | – | class 2 or class 4 | insoluble in water | low |
